The NIST ThermoML archive (doi:10.1016/j.jct.2019.01.016)
“And” between values parts separate entries of the source, which are not always exact repeats. Equal entries are not always repeated. ± gives the expanded uncertainty stated by the source.

Key:
[1] = molar heat capacity at constant pressure; settings: 101.33 kPa, Crystal 2, DSC
[2] = molar enthalpy of vaporization or sublimation; settings: Static calorimetry
[3] = for mass density: 101.33 kPa, X-ray diffraction; for Normal melting temperature: DTA
[4] = Molar enthalpy of transition or fusion; settings: DSC

In the case of `[C-]#[O+].[C-]#[O+].[C-]#[O+].[C-]#[O+].[C-]#[O+].[C-]#[O+].[C-]#[O+].[C-]#[O+].[C-]#[O+].[C-]#[O+].[Re].[Re]` [decacarbonyldirhenium], the “molar heat capacity at constant pressure” value ([1]; 298.15 K) is reported as 391.8 ± 53 J/K/mol, the “molar heat capacity at constant pressure” value ([1]; 303.15 K) is reported as 396.5 ± 50 J/K/mol and the “molar heat capacity at constant pressure” value ([1]; 308.15 K) is reported as 401.1 ± 47 J/K/mol. For the same compound, the “molar heat capacity at constant pressure” value ([1]; 313.15 K) was 405.5 ± 44 J/K/mol, the “molar heat capacity at constant pressure” value ([1]; 318.15 K) was 409.8 ± 41 J/K/mol and the “molar heat capacity at constant pressure” value ([1]; 323.15 K) was 413.9 ± 39 J/K/mol. The “molar heat capacity at constant pressure” value ([1]; 328.15 K) was 417.9 ± 36 J/K/mol, the “molar heat capacity at constant pressure” value ([1]; 333.15 K) was 421.8 ± 34 J/K/mol and the “molar heat capacity at constant pressure” value ([1]; 338.15 K) was 425.5 ± 32 J/K/mol. The molar enthalpy ([2]; 332.8 K, Crystal 2) was 23 ± 0.234 kcal/mol, the mass density ([3]; 293 K, Crystal) was 2932 ± 41 kg/m3 and the Normal melting temperature ([3]; Crystal 1) was 182.01 ± 1.7 °C. For the same compound, the Triple point temperature ([3]; Crystal 2, DSC) was 366.75 ± 0.92 K, the “Molar enthalpy of transition or fusion” value ([4]; Crystal 1) was 1 ± 0.263 kcal/mol and the “Molar enthalpy of transition or fusion” value ([4]; Crystal 2) was 3.66 ± 0.0908 kcal/mol.

For `[CH3][Re](=[O])(=[O])=[O]` [methyltrioxorhenium], the molar enthalpy ([2]; 298 K, Crystal) was 16.79 ± 0.124 kcal/mol, the mass density ([3]; 167 K, Crystal) was 4254 ± 7 kg/m3 and the mass density ([3]; 214 K, Crystal) was 4199 ± 6 kg/m3. For the same compound, the mass density ([3]; 296 K, Crystal) was 4124 ± 80 kg/m3 and 4132 ± 19 kg/m3, the Normal melting temperature ([3]; Crystal) was 112.59 ± 0.39 °C and the “Molar enthalpy of transition or fusion” value ([4]; Crystal) was 4.72 ± 0.129 kcal/mol.
